One series has as its system Aphis craccivora. Description: Action against Aphis craccivora. To be noted: 400 ppm spray on infested pea seedlings, 20° C., evaluated 3 and 6 days later, read-out: percentage reduction in population (% activity). The format is in vivo. As for the experimental part: Action against Aphis craccivora
Pea seedlings are infested with Aphis craccivora, subsequently sprayed with a spray mixture comprising 400 ppm of the test compound and incubated at 20° C. The evaluation is carried out 3 and 6 days later. The percentage reduction in population (% activity) is determined by comparing the number of dead aphids on the treated plants with that on the untreated plants.

A further series concerns Myzus persicae. Kind of series: Systemic action against Myzus persicae. The format is in vivo. Conditions: pea seedlings with roots in spray mixture of 400 ppm, 20° C., evaluated 3 and 6 days later. The protocol: Systemic Action against Myzus persicae
Pea seedlings are infested with Myzus persicae, and then placed with their roots in a spray mixture comprising 400 ppm of the test compound and incubated at 20° C. The evaluation is carried out 3 and 6 days later. The percentage reduction in population (% activity) is determined by comparing the number of dead aphids on the treated plants with that on the untreated plants.

A further series has as its system Tetranychus urticae. Description: Action against Tetranychus urticae. Type of series: in vivo. Conditions: 400 ppm spray on young bean plants, mixed population, 6 days at 25° C. As for the experimental part: Action against Tetranychus urticae
Young bean plants are populated with a mixed population of Tetranychus urticae and sprayed one day later with an aqueous emulsion spray mixture comprising 400 ppm of the test compound. The plants are then incubated for 6 days at 25° C. and subsequently evaluated. The percentage reduction in population (% activity) is determined by comparing the number of dead eggs, larvae and adults on the treated plants with that on the untreated plants.

The term melting point denotes the temperature of the solid-liquid transition. For the molecule `Cc1cc(OC(F)(F)C(F)Cl)ccc1NC(=O)CCCC=C(F)F` (stereo not shown) [Compound 1.1, 6,6-Difluorohex-5-enoic acid [4-(2-chloro-1,1,2-trifluoroethoxy)-2-methylphenyl]amide], the melting point lay in the range of 59 to 60 °C. Besides, in the series with Aphis craccivora, the inhibition at 400 ppm is over 80%.

Consider `O=C(CCCC=C(F)F)Nc1ccc(OC(F)(F)C(F)F)cc1` [Compound 1.3], for which the “percentage reduction in population (% activity)” value in the series on Myzus persicae is listed as “more than 80%”. Take `O=C(CCCC=C(F)F)Nc1cccc(OC(F)(F)C(F)F)c1` [Compound 1.17]: the “percentage reduction in population (% activity)” value with Tetranychus urticae is reported as “more than 80%”.

For the origin of these results see US6852888B2, “Carboxylic acid derivatives” (Syngenta Crop Protection, Inc., priority 1998, dated 2005).
